Drawing on patent US6004960A, “Pyridazinones as inhibitors of cyclooxygenase-2” (Merck Frosst Canada, Inc., priority 1998, dated 1999), this text covers IC50 for one compound.

What is called IC50 is the concentration needed to halve the response being measured.

For one experiment, the target named is T1, COX-2 (Homo sapiens, UniProt P35354).
T1 sequence (P35354 18-604): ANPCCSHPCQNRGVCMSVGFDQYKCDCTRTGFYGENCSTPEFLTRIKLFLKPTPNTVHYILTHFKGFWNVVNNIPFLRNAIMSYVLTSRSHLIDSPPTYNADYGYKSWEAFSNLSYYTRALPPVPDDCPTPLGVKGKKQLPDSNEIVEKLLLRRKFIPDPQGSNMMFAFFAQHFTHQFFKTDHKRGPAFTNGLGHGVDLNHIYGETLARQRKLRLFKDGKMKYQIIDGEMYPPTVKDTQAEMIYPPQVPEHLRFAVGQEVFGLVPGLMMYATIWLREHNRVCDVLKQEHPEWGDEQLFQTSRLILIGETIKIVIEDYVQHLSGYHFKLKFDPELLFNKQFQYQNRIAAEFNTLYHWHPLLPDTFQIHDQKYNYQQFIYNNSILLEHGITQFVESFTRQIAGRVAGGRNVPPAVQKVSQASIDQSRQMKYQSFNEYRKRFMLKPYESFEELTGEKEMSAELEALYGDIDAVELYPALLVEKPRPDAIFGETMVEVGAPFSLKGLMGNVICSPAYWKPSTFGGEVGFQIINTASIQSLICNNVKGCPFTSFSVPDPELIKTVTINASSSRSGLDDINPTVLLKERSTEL
The experiment can be described thus: Whole cell assay for COX-2 using CHO transfected cell line (CHO [hCOX-2]), PGE2. In kind it is cell-based. Further details: expressed in transfected cells; host or cells: CHO (Chinese hamster ovary), stably transfected with pCDNAIII vector; CHO [hCOX-2]. The settings on record: CHO [hCOX-2] cells, 10 μM AA. The protocol:
Chinese hamster ovary (CHO) cell lines which have been stably transfected with an eukaryotic expression vector pCDNAIII containing either the human COX-1 or COX-2 cDNA's are used for the assay. These cell lines are referred to as CHO [hCOX-1] and CHO [hCOX-2], respectively. […] Drugs to be tested are dissolved in DMSO to 66.7-fold the highest test drug concentration. […] Cells (0.3×10^6 cells in 200 p) are preincubated with 3 AIl of the test drug or DMSO vehicle for 15 min at 37° C. […] Cells are then challenged in the presence or absence of drug with the AA/HBSS solution to yield a final concentration of 0.5 μM AA in the CHOhCOX-1] assay and a final concentration of 10 μM AA in the CHO [hCOX-2] assay. […] The samples are centrifuged at 300×g at 4° C. for 10 min, and an aliquot of the clarified supernatant is appropriately diluted for the determination of PGE2 levels using an enzyme-liked immunoassay for PGE2 (Correlate PGE2 enzyme immunoassay kit, Assay Designs, Inc.). Cyclooxygenase activity in the absence of test compounds is determined as the difference in PGE2 levels of cells challenged with arachidonic acid versus the PGE2 levels in cells mock-challenged with ethanol vehicle. Inhibition of PGE2 synthesis by test compounds is calculated as a percentage of the activity in the presence of drug versus the activity in the positive control samples.
(§1) In the assay, inhibition is determined by measuring the amount of prostaglandin E2 (PGE2) synthesized in the presence of arachidonic acid, cyclooxygenase-I or cyclooxygenase-2 and a putative inhibitor.

For a further experiment, the target named is COX-1 (Homo sapiens, UniProt P23219). In words: Assay of COX-1 activity from U937 cell microsomes. The settings on record: PGE2, read-out: COX-1 (IC50 μM) U-937. Further details: Assay of COX-1 Activity from U937 cell microsomes; endogenous in cells; host or cells: U937 cells, 100,000×g microsomal pellet. It counts as biochemical. On the procedure: Assay of COX-1 Activity from U937 cell microsomes
Sequence of COX-1 (P23219 24-599): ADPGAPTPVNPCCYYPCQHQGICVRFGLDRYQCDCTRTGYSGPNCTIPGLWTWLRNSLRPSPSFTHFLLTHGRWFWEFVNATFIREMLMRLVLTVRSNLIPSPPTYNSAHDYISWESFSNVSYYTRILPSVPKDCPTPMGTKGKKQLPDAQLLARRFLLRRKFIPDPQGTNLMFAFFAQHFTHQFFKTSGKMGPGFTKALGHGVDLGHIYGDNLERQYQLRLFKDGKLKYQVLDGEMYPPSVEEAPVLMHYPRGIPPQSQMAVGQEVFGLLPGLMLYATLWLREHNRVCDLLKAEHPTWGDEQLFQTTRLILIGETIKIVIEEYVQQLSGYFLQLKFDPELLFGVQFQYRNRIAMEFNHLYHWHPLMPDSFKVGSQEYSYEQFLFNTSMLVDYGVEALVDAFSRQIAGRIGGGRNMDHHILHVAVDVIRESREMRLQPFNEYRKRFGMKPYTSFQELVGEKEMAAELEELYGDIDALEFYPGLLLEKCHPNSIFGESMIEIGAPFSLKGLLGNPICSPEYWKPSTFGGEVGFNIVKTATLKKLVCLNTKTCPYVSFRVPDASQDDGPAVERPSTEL
U 937 cells are pelleted by centrifugation at 500×g for 5 min and washed once with phosphate-buffered saline and repelleted. […] The cell suspension is sonicated 4 times for 10 sec and is centrifuged at 10,000×g for 10 min at 4° C. The supernatant is centrifuged at 100,000×g for 1 hr at 4° C. The 100,000×g microsomal pellet is resuspended in 0.1 M Tris-HCl, pH 7.4, 10 mM EDTA to approximately 7 mg protein/ml and stored at -80° C.
Microsomal preparations are thawed immediately prior to use, subjected to a brief sonication, and then diluted to a protein concentration of 125 μg/ml in 0.1 M Tris-HCl buffer, pH 7.4 containing 10 mM EDTA, 0.5 mM phenol, 1 mM reduced glutathione and 1 μM hematin. Assays are performed in duplicate in a final volume of 250 pl. Initially, 5 µl of DMSO vehicle or drug in DMSO are added to 20 μl of 0.1 M Tris-HCl buffer, pH 7.4 containing 10 mM EDTA in wells of a 96-deepwell polypropylene titre plate. 200 μl of the microsomal preparation are then added and pre-incubated for 15 min at room temperature before addition of 25 μl of […] in 0.1 M Tris-HCl and 10 mM EDTA, pH 7.4. Samples are incubated for 40 min at room temperature and the reaction is stopped by the addition of 25 pl of 1 N HCl. Samples are neutralized with 25 μl of 1 N NaOH prior to quantitation of PGE2 content by radioimmunoassay (Dupont-NEN or Amersham assay kits). Cyclooxygenase activity is defined as the difference between PGE2 levels in samples incubated in the presence of arachidonic acid and ethanol vehicle.
as §1

With `CS(=O)(=O)c1ccc(-c2cnn(Cc3ccccc3)c(=O)c2-c2cccnc2)cc1` [Example 28, 2-Benzyl-5-(4-methylsulfonyl)phenyl-4-(3-pyridyl)-2H-pyridazin-3-one], the results for the IC50 on COX-2 and at COX-1 were 0.13 µM and greater than 10 µM, respectively.
